13 compounds from ChEMBL document CHEMBL2413061, “Synthesis and cytotoxic activity evaluation of 2,3-thiazolidin-4-one derivatives on human breast cancer cell lines” (Bioorg Med Chem Lett, 2013) can be followed below.

Each structure is given as a SMILES string. The source made the active and inactive calls. The rule behind the calls is not given here.

In one series the test system is NIH3T3. The series can be described thus: Cytotoxicity against mouse 3T3 cells assessed as cell viability at 0.1 to 10 uM after 72 hrs by MTT assay. The format is cell-based. The conditions noted are these: nih3t3, 72 h. For orientation: Tetrazolium dyes change colour on reduction, which living cells bring about.
Series [1] has as its system SK-BR-3. In words: Cytotoxicity against human estrogen receptor negative SKBR3 cells at 0.1 to 50 uM after 72 hrs by MTT assay. The format is functional, cell-based.
The test system of series [2] is MCF7. The series can be described thus: Cytotoxicity against human estrogen receptor positive MCF7 cells after 72 hrs by MTT assay. It counts as functional, cell-based. As to conditions: for IC50: MCF7, 72 h.
For series [3], the system named is SK-BR-3. In words: Cytotoxicity against human estrogen receptor negative SKBR3 cells at 10 uM after 72 hrs by MTT assay. The format is functional, cell-based.
The test system of series [4] is SK-BR-3. The series can be described thus: Cytotoxicity against human estrogen receptor negative SKBR3 cells after 72 hrs by MTT assay. It counts as functional, cell-based. The conditions noted are these: SK-BR-3, 72 h.
Series [5] has as its system MCF7. In words: Cytotoxicity against human estrogen receptor positive MCF7 cells at 1 uM after 72 hrs by MTT assay. It counts as functional, cell-based.
Series [6] relates to MCF7. In words: Cytotoxicity against human estrogen receptor positive MCF7 cells at 50 uM after 72 hrs by MTT assay. It counts as functional, cell-based.
Series [7] deals with MCF7. In words: Cytotoxicity against human estrogen receptor positive MCF7 cells at 0.1 uM after 72 hrs by MTT assay. The format is functional, cell-based.
The test system of series [8] is MCF7. The series can be described thus: Cytotoxicity against human estrogen receptor positive MCF7 cells at 1 to 10 uM after 72 hrs by MTT assay. The format is functional, cell-based.

As for `O=C1CSC(c2ccc(O)cc2)N1c1ccc(O)cc1` (stereo unspecified), the Activity result with NIH3T3 is listed as “Non-toxic”. Besides, the inhibition result with SK-BR-3 [1] is “inactive”.

In the case of `Cc1ccc(N2C(=O)CSC2c2ccc(Cl)cc2)cc1` (stereo unspecified), the results for the Activity result with MCF7 [2] and in the series on NIH3T3 were “Dose-dependent effect” and “Non-toxic”, respectively. Besides, the inhibition entry in the series on SK-BR-3 [3] was “Active”. Moreover, in the series on SK-BR-3 [1], the inhibition entry was “inactive”.

In the case of `O=C1CSC(c2ccccc2)N1c1ccccc1` (stereo unspecified), the figures for the Activity result in the series with MCF7 [2] and with NIH3T3 were “Dose-dependent effect” and “Non-toxic”, respectively. This compound yielded an IC50 in the series with SK-BR-3 [4] of 810 nM.

For `Oc1ccc(/C=C/c2cc(O)cc(O)c2)cc1` [RESVERATROL], the IC50 is 28100 nM with MCF7 [2] and 41400 nM in the series on SK-BR-3 [4].

With `O=C1CSC(c2ccc(O)c(O)c2)N1c1ccc(O)cc1` (stereo unspecified), the Activity entry with NIH3T3 was “Non-toxic”. In the series with MCF7 [5], the inhibition entry is “Active”. The inhibition result in the series on MCF7 [6] and in the series with SK-BR-3 [1] was “inactive” throughout.

Take `COc1cc(C2SCC(=O)N2c2ccc(O)cc2)cc(OC)c1OC` (stereo unspecified): the Activity result in the series with MCF7 [2] was “Dose-dependent effect”; in the series with NIH3T3, “Non-toxic”. For the same compound, the inhibition result in the series with SK-BR-3 [3] is “Active”. Also, the inhibition result with SK-BR-3 [1] was “inactive”.

As to `COc1cc(C2SCC(=O)N2c2ccc(C)cc2)cc(OC)c1OC` (stereo unspecified), the Activity result in the series with NIH3T3 is reported as “Non-toxic”. This compound gave a concentration for half-maximal inhibition (IC50) with SK-BR-3 [4] of 230 nM.

Regarding `Cc1ccc(N2C(=O)CSC2c2cccc3ccccc23)cc1` (stereo unspecified), the inhibition result in the series on MCF7 [7] is “Active”. Besides, the Activity entry with NIH3T3 was “Non-toxic”. In addition, in the series on MCF7 [6], the inhibition entry is “inactive”. This compound also yielded an IC50 in the series on SK-BR-3 [4] of 250 nM.

As for `COc1ccc(C2SCC(=O)N2c2ccc(O)cc2)c(OC)c1` (stereo unspecified), the Activity result in the series on MCF7 [2] is “Dose-dependent effect”; in the series with NIH3T3, “Non-toxic”. In the series with SK-BR-3 [1], the inhibition entry is “inactive”.

`O=C1CSC(c2ccc(Cl)cc2)N1c1ccc(O)cc1` (stereo unspecified): the Activity entry in the series on MCF7 [2] is “Dose-dependent effect”; with NIH3T3, “Non-toxic”. Further, in the series with MCF7 [2], it took 5000 nM to reach half-maximal inhibition (IC50). The result with MCF7 [8] was Active. Moreover, the inhibition entry in the series with SK-BR-3 [3] was “Active”. Also, in the series with SK-BR-3 [1], the inhibition result was “inactive”.

Regarding `O=C1CSC(c2ccc(O)cc2O)N1c1ccc(O)cc1` (stereo unspecified), the Activity entry in the series with NIH3T3 is “Non-toxic”. Moreover, the inhibition entry with SK-BR-3 [1] is “inactive”.

As to `COc1ccc(C2SCC(=O)N2c2ccc(O)cc2)cc1OC` (stereo unspecified), in the series on MCF7 [2], the Activity result is “Dose-dependent effect” and half-maximal inhibition (IC50) was put at 2580 nM. The outcome with MCF7 [8] was Active. The inhibition entry with SK-BR-3 [3] was “Active”. The Activity result in the series with NIH3T3 is listed as “Non-toxic”. Also, the inhibition result in the series with SK-BR-3 [1] was “inactive”.

Turning to `O=C1CSC(c2cc(O)cc(O)c2)N1c1ccc(O)cc1` (stereo unspecified), the Activity result is “Dose-dependent effect” in the series with MCF7 [2] and “Non-toxic” with NIH3T3. The inhibition entry in the series on SK-BR-3 [3] is “Active”. Besides, the inhibition result in the series on SK-BR-3 [1] is “inactive”.

The IC50 is the concentration at which inhibition is half-maximal.
